From patent US4594347A, “Pyrrolo [3,2,1-ij]-quinoline carboxylic acid compound” (Otsuka Pharmaceutical Co. Limited, priority 1983, dated 1986)

Assays:
[1] = test system: Pseudomonas aeruginosa E-2; test: Therapeutic effects of compounds in urinary infectious diseases in vivo; design: species or system JCL:S.D. female rats; conditions: E2, 96 h, female S.D. rats, bladder infection, oral at 6, 24 and 48 hours, urine and kidney colonies after 4 days, Probit method, read-out: 50% effective dose (ED50)
Method: Pseudomonas aeruginosa E-2 was cultured in a nutrient medium at 37° C. for 18 hours and the culture broth thus obtained was diluted with the same medium to prepare a solution of the microorganism (cell concentration: 10^7 cells/ml). To the solution were dipped a UV-sterilized disc [glyceryl monomyristate (manufactured by Nikko Chemicals, Japan) and sodium cetylsulfurate (manufactured by Nikko Chemicals, Japan) in a weight ratio of 9:1; diameter: 2.0 mm, length: 3.0 mm] under ice-cooling for 1.5 hour to give a microorganism-containing disc for inoculation.
The above-prepared disc was surgically inserted into the bladder of JCL:S.D. female rats (one group: four rats) anaesthetized with secobarbital sodium. After the animals have been infected with the microorganism, i.e. 6 hours after the insertion of the disc, 1% oxamide-containing feed and water were administered to the animals. The oxamide-containing feed was changed to a normal feed after 24 hours. Test compounds 1, 7 and 8 as used in Test 1 (in the form of a 0.5% CMC suspension) were each orally administered to the animals in a dose of 16 mg/kg, 8.0 mg/kg, 4.0 mg/kg, 2.0 mg/kg, and 1.0 mg/kg at 6, 24 and 48 hours after the insertion of disc. After 4 days from the infection, urine was collected and further the kidney was taken out from the animals, and then the presence of microorganism was checked as to the collected urine and kidney. That is, 0.1 ml of the urine was applied onto an agar plate medium and cultured at 37° C. for 18 hours, and the number of colonies was counted. Besides, the taken out kidney was divided into two, and the plain section was contacted to an agar plate medium, and the medium was cultured likewise, and the number of colonies was counted, likewise. When the number of colonies was less than 10, it was evaluated as "effective," and when the number of colonies was more than 10, it was evaluated as "ineffective". […]

[2] = test system: Pseudomonas aeruginosa E-2; test: Antimicrobial test in vitro (MIC, agar plate dilution method); type: cell-based; design: unit not given here; conditions: P. aeruginosa E-2
Method: (§1) The antimicrobial activities of the following test compounds were tested by measuring the minimum inhibitory concentration (MIC) by an agar plate dilution method [cf. Chemotherapy, 22, 1126-1128 (1974)]. The test microorganisms were used in a concentration of 1×10^8 cells/ml (optical dencity (O.D.) at 660 m: 0.07-0.16) and 1×10^6 cells/ml (dilution: 100 folds).
K: Pseudomonas aeruginosa E-2

[3] = test system: Pseudomonas aeruginosa ATCC 10145; test: as above; type: cell-based; design: unit not given here; conditions: P. aeruginosa ATCC 10145
Method: as §1
J: Pseudomonas aeruginosa ATCC 10145

[4] = test system: Escherichia coli NIHJ JC-2; test: as above; type: cell-based; design: unit not given here; conditions: E. coli NIHJ JC-2
Method: as §1
C: Escherichia coli NIHJ JC-2

[5] = test system: Acinetobacter calcoaceticus AC-54; test: as above; type: cell-based; design: unit not given here; conditions: A. calcoaceticus AC-54
Method: as §1
I: Acinetobacter calcoaceticus AC-54

[6] = test system: Staphylococcus aureus FDA 209P; test: as above; type: cell-based; design: unit not given here; conditions: S. aureus FDA 209P
Method: as §1
A: Staphylococcus aureus FDA 209P

[7] = test system: Proteus morganii II D Kono; test: as above; type: cell-based; design: unit not given here; conditions: P. morganii II D Kono
Method: as §1
G: Proteus morganii II D Kono

[8] = test system: Serratia marcescens IFO 12648; test: as above; type: cell-based; design: unit not given here; conditions: S. marcescens IFO 12648
Method: as §1
H: Serratia marcescens IFO 12648

[9] = test system: Klebsiella pneumoniae NCTC 9632; test: as above; type: cell-based; design: unit not given here; conditions: K. pneumoniae NCTC 9632
Method: as §1
E: Klebsiella pneumoniae NCTC 9632

Escherichia coli No. 29 = test: as above; type: cell-based; design: unit not given here; conditions: E. coli No. 29
Method: as §1
D: Escherichia coli No. 29

[10] = Measurement of concentration of compounds in urine; type: in vivo; conditions: male rats, oral 25 mg/kg, 0-24 hours
Method: (§2) The same Test Compound 1 as used in the above Test 1 was orally administered in a dose of 25 mg/kg to three male rats (weighing 190-242 g), and blood and urine were collected from the animals at intervals. The concentration of the test compound in the collected urine and blood was measured by a thin layer plate cup (6 ml medium/.phi.90 mm shall) method wherein Bacillus subtilis ATCC 6633 was used as a test microorganism and a sensitive medium (manufactured by Eiken Kagaku K.K., Japan) was used as a medium. The results are shown in Table 2 (the concentration in urine) and in Table 3 (the concentration in blood), respectively.

[11] = Measurement of concentration of compounds in blood; type: in vivo; conditions: rat, male rats, oral 25 mg/kg
Method: as §2

[12] = test system: Streptococcus pyogenes II D S-23; test: Antimicrobial test in vitro (MIC, agar plate dilution method); type: cell-based; design: unit not given here; conditions: S. pyogenes II D S-23
Method: as §1
B: Streptococcus pyogenes II D S-23

Proteus mirabilis 1287 = test: as above; type: cell-based; design: unit not given here; conditions: P. mirabilis 1287
Method: as §1
F: Proteus mirabilis 1287

CC1CCc2c(N3CCN(C)CC3)c(F)cc3c(=O)c(C(=O)O)cn1c23 (stereo not drawn) [Test compound 8, 8-(4-methyl-1-piperazinyl)-9-fluoro-5-methyl-6,7-dihydro-1-oxo-1H,5H-benzo[ij]quinolidine-2-carboxylic acid] showed an ED50 [1] of 12 mg/kg.
Work on CC1Cc2c(N3CCN(C)CC3)c(F)cc3c(=O)c(C(=O)O)cn1c23 (stereo not drawn) [Test compound 7, 8-fluoro-2-methyl-6-oxo-9-(4-methyl-1-piperazinyl)-1,2-dihydro-pyrrolo[3,2,1-ij]quinoline-5-carboxylic acid] yielded an ED50 [1] of 6.15 mg/kg.
In the case of CC1Cc2c(N3CCN(C)CC3)c(F)c(N)c3c(=O)c(C(=O)O)cn1c23 (stereo not drawn) [Compound 1, 8-fluoro-2-methyl-9-(4-methyl-1-piperazinyl)-7-amino-6-oxo-1,2-dihydro-pyrrolo[3,2,1-ij]quinoline-5-carboxylic acid], the “minimum inhibitory concentration (MIC)” value ([2]; 1×10^6 cells/ml) is reported as 0.78, the “minimum inhibitory concentration (MIC)” value ([2]; 1×10^8 cells/ml) is reported as 1.56 and the “minimum inhibitory concentration (MIC)” value ([3]; 1×10^6 cells/ml) is reported as 0.78. The “minimum inhibitory concentration (MIC)” value ([3]; 1×10^8 cells/ml) was 1.56, the “minimum inhibitory concentration (MIC)” value ([4]; 1×10^6 cells/ml) was 0.05 and the “minimum inhibitory concentration (MIC)” value ([4]; 1×10^8 cells/ml) was 0.1. For the same molecule, the “minimum inhibitory concentration (MIC)” value ([5]; 1×10^6 cells/ml) was 0.39, the “minimum inhibitory concentration (MIC)” value ([5]; 1×10^8 cells/ml) was 0.39 and the ED50 [1] was 1.53 mg/kg. The “minimum inhibitory concentration (MIC)” value ([6]; 1×10^6 cells/ml) was 0.2, the “minimum inhibitory concentration (MIC)” value ([6]; 1×10^8 cells/ml) was 0.39 and the “minimum inhibitory concentration (MIC)” value ([7]; 1×10^6 cells/ml) was 0.2. The “minimum inhibitory concentration (MIC)” value ([7]; 1×10^8 cells/ml) was 0.39, the “minimum inhibitory concentration (MIC)” value ([8]; 1×10^6 cells/ml) was 0.2 and the “minimum inhibitory concentration (MIC)” value ([8]; 1×10^8 cells/ml) was 0.2. For the same molecule, the “minimum inhibitory concentration (MIC)” value ([9]; 1×10^6 cells/ml) was 0.2, the “minimum inhibitory concentration (MIC)” value ([9]; 1×10^8 cells/ml) was 0.2 and the “minimum inhibitory concentration (MIC)” value (Escherichia coli No. 29; 1×10^6 cells/ml) was 0.1. For the same molecule, the “minimum inhibitory concentration (MIC)” value (Escherichia coli No. 29; 1×10^8 cells/ml) was 0.1, the “Recovered amount in urine” value [10] was 1471.6 µg and the dose excreted at 24 h ([10]; rat, urine, read-out: Recovery rate in urine) was 27.2%. The concentration at 0.5 h ([11]; 0.5 hour after the administration) was 3190 ng/mL, the concentration at 1 h ([11]; 1 hour after the administration) was 2490 ng/mL and the concentration at 2 h ([11]; 2 hours after the administration) was 1920 ng/mL. For the same molecule, the concentration at 4 h ([11]; 4 hours after the administration) was 900 ng/mL, the concentration at 6 h ([11]; 6 hours after the administration) was 600 ng/mL and the concentration at 8 h ([11]; 8 hours after the administration) was 310 ng/mL. For the same molecule, the “minimum inhibitory concentration (MIC)” value ([12]; 1×10^6 cells/ml) was 3.13, the “minimum inhibitory concentration (MIC)” value ([12]; 1×10^8 cells/ml) was 3.13 and the “minimum inhibitory concentration (MIC)” value (Proteus mirabilis 1287; 1×10^6 cells/ml) was 0.39. The “minimum inhibitory concentration (MIC)” value (Proteus mirabilis 1287; 1×10^8 cells/ml) was 0.78.
